# Test results as given in PubChem BioAssay AID588616 (The Scripps Research Institute Molecular Screening Center, 2011).
# Columns and labels:
# [1] = tested on: DLD-1 cells, phospho-p38 western blot, 24 h; test: phospho-p38 protein level change, either direction, late-stage follow-up, counter-screen for KLF5 inhibitor project, DLD1 cells, chemiluminescent western blot, powder samples (AID 588616); conditions: measured here: phospho-p38 band fold change vs DMSO; at 10 µM; stronger effect = lower value
# [2] = biological target: Mitogen-activated protein kinase 14 (Homo sapiens) (UniProt Q16539); test: as above; conditions: DLD-1 cells, phospho-p38 western blot, 24 h; at 10 µM; stronger effect = higher value
# Sequence of Mitogen-activated protein kinase 14 (Homo sapiens) (Q16539 whole entry, looked up): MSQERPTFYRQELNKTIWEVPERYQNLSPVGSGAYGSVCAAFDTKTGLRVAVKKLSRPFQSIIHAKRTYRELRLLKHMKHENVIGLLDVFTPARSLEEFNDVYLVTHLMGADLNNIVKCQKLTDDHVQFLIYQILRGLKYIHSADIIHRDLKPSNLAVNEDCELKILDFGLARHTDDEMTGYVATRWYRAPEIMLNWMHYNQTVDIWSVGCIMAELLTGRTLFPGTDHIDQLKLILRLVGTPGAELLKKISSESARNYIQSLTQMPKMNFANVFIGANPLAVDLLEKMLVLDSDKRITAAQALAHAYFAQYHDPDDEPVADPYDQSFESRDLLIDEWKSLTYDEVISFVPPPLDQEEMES
inhibition [2],Compound,fold change [1]
-114%,CN(C(=O)CNC(=O)/C=C/c1cccc(Cl)c1)C1CCS(=O)(=O)C1 (stereo unspecified),2.14
-197%,CN(C(=O)COC(=O)/C=C/c1cccc([N+](=O)[O-])c1)C1CCS(=O)(=O)C1 (stereo unspecified),2.97
-144%,CN(C(=O)CNC(=O)/C=C/c1cccc(Cl)c1)C1CCS(=O)(=O)CC1,2.44
